Data as given in patent US10829473B2, “Modulators of the cystic fibrosis transmembrane conductance regulator protein and methods of use” (AbbVie Overseas S.Á.R.L., priority 2017, dated 2020).
Where two headings read alike, the source gives them in different places. Marks after values point to notes of the source that are not given here.

Target: T1, F508delCFTR (Homo sapiens, UniProt P13569, DEL508-508)
T1 construct: expressed in transfected cells; host or cells: CFBE41o- human lung derived epithelial cells (CFBE41o-F508delCFTR-HRP), doxycycline-inducible
T1 sequence (P13569 with tags, fused parts or gaps DEL508-508): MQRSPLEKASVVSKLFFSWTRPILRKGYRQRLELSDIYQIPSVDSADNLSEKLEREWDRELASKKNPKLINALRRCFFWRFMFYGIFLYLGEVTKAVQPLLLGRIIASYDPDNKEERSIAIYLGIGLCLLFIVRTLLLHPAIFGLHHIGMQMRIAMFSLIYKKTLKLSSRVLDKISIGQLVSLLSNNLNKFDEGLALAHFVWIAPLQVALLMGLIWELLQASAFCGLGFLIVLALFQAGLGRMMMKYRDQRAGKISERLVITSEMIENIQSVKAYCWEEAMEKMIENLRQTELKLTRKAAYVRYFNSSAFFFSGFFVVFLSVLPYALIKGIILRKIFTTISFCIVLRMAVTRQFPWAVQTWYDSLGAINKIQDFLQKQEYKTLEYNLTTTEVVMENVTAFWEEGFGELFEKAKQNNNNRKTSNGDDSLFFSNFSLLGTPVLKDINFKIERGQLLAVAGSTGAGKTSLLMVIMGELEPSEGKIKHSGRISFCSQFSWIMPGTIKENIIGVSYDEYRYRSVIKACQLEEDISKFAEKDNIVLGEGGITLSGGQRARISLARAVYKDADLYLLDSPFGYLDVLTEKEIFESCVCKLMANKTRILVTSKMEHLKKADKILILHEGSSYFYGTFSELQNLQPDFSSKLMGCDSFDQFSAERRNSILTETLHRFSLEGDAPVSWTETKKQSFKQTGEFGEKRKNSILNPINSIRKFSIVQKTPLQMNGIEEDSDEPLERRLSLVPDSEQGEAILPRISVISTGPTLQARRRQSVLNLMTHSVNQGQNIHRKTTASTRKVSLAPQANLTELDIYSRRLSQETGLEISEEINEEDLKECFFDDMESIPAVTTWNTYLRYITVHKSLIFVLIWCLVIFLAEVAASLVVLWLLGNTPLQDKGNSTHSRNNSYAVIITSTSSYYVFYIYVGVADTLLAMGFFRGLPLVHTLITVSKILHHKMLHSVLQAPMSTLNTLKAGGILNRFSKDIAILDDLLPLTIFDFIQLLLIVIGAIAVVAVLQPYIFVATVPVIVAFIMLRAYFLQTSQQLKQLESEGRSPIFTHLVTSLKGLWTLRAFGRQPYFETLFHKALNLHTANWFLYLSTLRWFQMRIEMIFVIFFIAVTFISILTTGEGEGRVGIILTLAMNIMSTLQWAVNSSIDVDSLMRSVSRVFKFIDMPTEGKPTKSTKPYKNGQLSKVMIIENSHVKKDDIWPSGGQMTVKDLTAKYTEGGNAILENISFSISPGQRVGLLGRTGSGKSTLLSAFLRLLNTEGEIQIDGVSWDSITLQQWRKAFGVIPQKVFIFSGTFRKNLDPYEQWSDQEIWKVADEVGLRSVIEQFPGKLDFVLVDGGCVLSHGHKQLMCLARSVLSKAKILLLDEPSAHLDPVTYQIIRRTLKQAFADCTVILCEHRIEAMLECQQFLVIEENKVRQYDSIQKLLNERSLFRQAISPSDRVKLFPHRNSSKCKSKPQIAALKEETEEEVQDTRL
Assay: Cell Surface Expression-Horse Radish Peroxidase (CSE-HRP) Assay;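 on EC50 (with co-corrector): co-corrector chromenyl benzoic acid corrector at 2 or 3 µM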;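 on Maximum % activity (without co-corrector): % of on-plate positive control chromenyl benzoic acid corrector at 2 or 3 µM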
Type: cell-based
Details: for Emax: read-out: Maximum % activity (without co-corrector)
Summary of the method: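 Corrector compounds were given as 8-point 3-fold series from 20 or 30 μM, with or without a 2 μM co-corrector, for 18-24 h at 33 °C. Surface HRP was read by luminol luminescence as % of positive control; variable-Hill-slope sigmoidal fitting gave EC50 from triplicate plates.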

[1] = test compound alone, without co-corrector, read-out: EC50 (without co-corrector)
[2] = with co-corrector, maximum at any tested concentration
[3] = with co-corrector, read-out: EC50 (with co-corrector)
[4] = without co-corrector, maximum at any tested concentration
[5] = test compound with co-corrector, maximum at any tested concentration
[6] = test compound with co-corrector, read-out: EC50 (with co-corrector)
[7] = test compound without co-corrector, maximum at any tested concentration
[8] = test compound without co-corrector, read-out: EC50 (without co-corrector)

EC50 [1]	Maximum % activity (with co-corrector) [2]	EC50 [3]	Emax [4]	Maximum % activity (with co-corrector) [5]	EC50 [6]	EC50 (without co-corrector) (test compound without co-corrector)	Emax [7]	EC50 [8]	Compound	Emax
> 10 µM	++ (≥150 and <350)	3 to 10 µM	< 50%	–	–	–	–	–	Cc1ccc(S(=O)(=O)NC(=O)C2(c3ccc(Cl)cc3Cl)CC2)cc1 [Example III-37, 1-(2,4-dichlorophenyl)-N-(4-methylbenzene-1-sulfonyl)cyclopropane-1-carboxamide]	–
< 3 µM	+++ (≥350)	< 3 µM	> 150%	–	–	–	–	–	CCc1cccc(OC)c1C1(C(=O)NS(=O)(=O)c2cccc3[nH]ncc23)CC1 [Example III-132, 1-(2-ethyl-6-methoxyphenyl)-N-(lH-indazole-4-sulfonyl)cyclopropane-1-carboxamide]	–
> 10 µM	++ (≥150 and <350)	3 to 10 µM	< 50%	–	–	–	–	–	O=C(NS(=O)(=O)Cc1ccccc1)C1(c2ccc(Cl)cc2Cl)CC1 [Example III-104, 1-(2,4-dichlorophenyl)-N-(phenylmethanesulfonyl)cyclopropane-1-carboxamide]	–
–	–	–	–	+++ (≥350)	3 to 10 µM	++^a	> 150%	–	COCCOc1ncc(C)cc1C1(C(=O)NS(=O)(=O)c2cccc3nc(C)ccc23)CC1 [GII-50, 1-[2-(2-methoxyethoxy)-5-methylpyridin-3-yl]-N-(2-methylquinoline-5-sulfonyl)cyclopropane-1-carboxamide]	–
> 10 µM	+ (<150)	> 10 µM	< 50%	–	–	–	–	–	O=C(NS(=O)(=O)c1ccc(OC(F)(F)F)cc1)C1(c2ccc(Cl)cc2Cl)CC1 [Example III-14, 1-(2,4-dichlorophenyl)-N-[4-(trifluoromethoxy)benzene-1-sulfonyl]cyclopropane-1-carboxamide]	–
–	–	–	–	++ (≥150 and <350)	3 to 10 µM	–	50 to 150%	3 to 10 µM	O=C(NS(=O)(=O)c1cccc2ccccc12)C1(c2cc(Cl)cnc2C(F)(F)F)CC1 [GII-5, 1-[5-chloro-2-(trifluoromethyl)pyridin-3-yl]-N-(naphthalene-1-sulfonyl)cyclopropane-1-carboxamide]	–
> 10 µM	+ (<150)	> 10 µM	< 50%	–	–	–	–	–	O=C(NS(=O)(=O)c1cc([N+](=O)[O-])ccc1Cl)C1(c2cccc(Cl)c2)CC1 [Example III-55, N-(2-chloro-5-nitrobenzene-1-sulfonyl)-1-(3-chlorophenyl)cyclopropane-1-carboxamide]	–
3 to 10 µM	++ (≥150 and <350)	3 to 10 µM	< 50%	–	–	–	–	–	Cc1ccc(C2(C(=O)NS(=O)(=O)c3ccccc3)CC2)cc1 [Example III-29, N-(benzenesulfonyl)-1-(4-methylphenyl)cyclopropane-1-carboxamide]	–

Second part, the molecule before the results:

Compound	EC50 [1]	Maximum % activity (with co-corrector) [2]	EC50 [3]	Emax [4]	Maximum % activity (with co-corrector) [5]	EC50 [6]	EC50 (without co-corrector) (test compound without co-corrector)	Emax [7]	EC50 [8]	Emax
COc1ncc(C2CCC2)cc1C1(C(=O)NS(=O)(=O)c2cccc3ncc(C)n23)CC1 [II-16]	3 to 10 µM	+++ (≥350)	< 3 µM	> 150%	–	–	–	–	–	–
CCOc1ccc(C(C)(C)COC)cc1C1(C(=O)NS(=O)(=O)c2cccc3nc(C)ccc23)CC1 [II-105]	< 3 µM	+++ (≥350)	< 3 µM	> 150%	–	–	–	–	–	–
COc1cc(C2CCC2)cc(OC)c1C1(C(=O)NS(=O)(=O)c2cccc3ncccc23)CC1 [Example I-80, 1-(4-cyclobutyl-2,6-dimethoxyphenyl)-N-(quinoline-5-sulfonyl)cyclopropane-1-carboxamide]	3 to 10 µM	+++ (≥350)	< 3 µM	> 150%	–	–	–	–	–	–
CCOc1ccc(C2(OC)CCC2)cc1C1(C(=O)NS(=O)(=O)c2cccc3ncccc23)CC1 [Example I-102, 1-[2-ethoxy-5-(1-methoxycyclobutyl)phenyl]-N-(quinoline-5-sulfonyl)cyclopropane-1-carboxamide]	< 3 µM	+++ (≥350)	< 3 µM	> 150%	–	–	–	–	–	–
COC(=O)c1ccc(OC)c(C2(C(=O)NS(=O)(=O)c3cccc4ncccc34)CC2)c1 [II-31]	3 to 10 µM	+++ (≥350)	< 3 µM	–	–	–	–	–	–	> 150%
CCOC(C)(C)c1ccc(OC)c(C2(C(=O)NS(=O)(=O)c3cccc4ncccc34)CC2)c1 [II-96]	< 3 µM	+++ (≥350)	< 3 µM	> 150%	–	–	–	–	–	–
COC(=O)C1(c2ccc(OC)c(C3(C(=O)NS(=O)(=O)c4cccc5ncccc45)CC3)c2)CC1 [II-30]	3 to 10 µM	+++ (≥350)	< 3 µM	> 150%	–	–	–	–	–	–
Cc1cnc(OCC(C)C)c(C2(C(=O)NS(=O)(=O)c3cccc4[nH]ccc34)CC2)c1 [Example GI-44, N-(1H-indole-4-sulfonyl)-1-[5-methyl-2-(2-methylpropoxy)pyridin-3-yl]cyclopropane-1-carboxamide]	–	–	–	–	+++ (≥350)	< 3 µM	–	> 150%	< 3 µM	–
Cc1ccc2c(S(=O)(=O)NC(=O)C3(c4cc(C5CCC5)ncc4OC(C)C)CC3)cccc2n1 [Example GI-26, 1-{2-cyclobutyl-5-[(propan-2-yl)oxy]pyridin-4-yl}-N-(2-methylquinoline-5-sulfonyl)cyclopropane-1-carboxamide]	3 to 10 µM	+++ (≥350)	< 3 µM	> 150%	–	–	–	–	–	–
COc1ccc(C2CCC2)cc1C1(C(=O)NS(=O)(=O)c2cccc3c2CCN3C)CC1 [II-40]	3 to 10 µM	+++ (≥350)	3 to 10 µM	> 150%	–	–	–	–	–	–
COc1ccc(C2CC2)cc1C1(C(=O)NS(=O)(=O)c2cccc3ccccc23)CC1 [Example I-12, 1-(5-cyclopropyl-2-methoxyphenyl)-N-(naphthalene-1-sulfonyl)cyclopropane-1-carboxamide]	< 3 µM	+++ (≥350)	< 3 µM	> 150%	–	–	–	–	–	–
COc1ccc(C)c(C)c1C1(C(=O)NS(=O)(=O)c2cccc3[nH]ncc23)CC1 [II-77]	< 3 µM	+++ (≥350)	< 3 µM	> 150%	–	–	–	–	–	–
COc1cc(C2CCC2)cc(OC)c1C1(C(=O)NS(=O)(=O)c2cccc3nc(C)ccc23)CC1 [II-69]	< 3 µM	+++ (≥350)	< 3 µM	> 150%	–	–	–	–	–	–
COC1CCN(c2ncc(C3CCC3)cc2C2(C(=O)NS(=O)(=O)c3cccc4[nH]ccc34)CC2)CC1 [Example GI-57, 1-[5-cyclobutyl-2-(4-methoxypiperidin-1-yl)pyridin-3-yl]-N-(1H-indole-4-sulfonyl)cyclopropane-1-carboxamide]	–	–	–	–	+++ (≥350)	< 3 µM	–	> 150%	< 3 µM	–
COc1ccc(OC(C)C)cc1C1(C(=O)NS(=O)(=O)c2cccc3ncccc23)CC1 [Example I-14, 1-{2-methoxy-5-[(propan-2-yl)oxy]phenyl}-N-(quinoline-5-sulfonyl)cyclopropane-1-carboxamide]	< 3 µM	+++ (≥350)	< 3 µM	> 150%	–	–	–	–	–	–
CCC(C)c1ccc(OC)c(C2(C(=O)NS(=O)(=O)c3cccc4c3CCCN4)CCC2)c1 (stereo not drawn) [II-22]	3 to 10 µM	+++ (≥350)	< 3 µM	> 150%	–	–	–	–	–	–
Cc1ccc(C)c(C2(C(=O)NS(=O)(=O)c3cccc4nc(N)ccc34)CC2)c1 [Example I-81, N-(2-aminoquinoline-5-sulfonyl)-1-(2,5-dimethylphenyl)cyclopropane-1-carboxamide]	< 3 µM	+++ (≥350)	< 3 µM	> 150%	–	–	–	–	–	–
O=C(NS(=O)(=O)c1cccc2ncccc12)C1(c2cc(C3CC3)cnc2N2CCCC2)CC1 [Example GI-32, 1-[5-cyclopropyl-2-(pyrrolidin-1-yl)pyridin-3-yl]-N-(quinoline-5-sulfonyl)cyclopropane-1-carboxamide]	–	–	–	–	+++ (≥350)	< 3 µM	–	> 150%	3 to 10 µM	–
COc1ccc(C2CCC2)cc1C1(C(=O)NS(=O)(=O)c2cccc3[nH]ncc23)CC1 [Example I-56, 1-(5-cyclobutyl-2-methoxyphenyl)-N-(1H-indazole-4-sulfonyl)cyclopropane-1-carboxamide]	< 3 µM	+++ (≥350)	< 3 µM	> 150%	–	–	–	–	–	–
CCc1cnc(N2CCCC2)c(C2(C(=O)NS(=O)(=O)c3cccc4[nH]ccc34)CC2)c1 [Example GI-37, 1-[5-ethyl-2-(pyrrolidin-1-yl)pyridin-3-yl]-N-(1H-indole-4-sulfonyl)cyclopropane-1-carboxamide]	–	–	–	–	+++ (≥350)	< 3 µM	–	> 150%	3 to 10 µM	–
O=C(NS(=O)(=O)c1cccc2ncccc12)C1(c2ccc(C(F)(F)F)nc2C2CC2)CC1 [Example GI-5, 1-[2-cyclopropyl-6-(trifluoromethyl)pyridin-3-yl]-N-(quinoline-5-sulfonyl)cyclopropane-1-carboxamide]	3 to 10 µM	+++ (≥350)	< 3 µM	> 150%	–	–	–	–	–	–
COc1ncc(C2CCC2)c(C)c1C1(C(=O)NS(=O)(=O)c2cccc3nc(C)ccc23)CC1 [II-33]	3 to 10 µM	+++ (≥350)	< 3 µM	> 150%	–	–	–	–	–	–
